In the assay the target is TRPV1 (Homo sapiens, UniProt Q8NER1). Briefly: Fluo-4 calcium imaging in HEK293 cells stably expressing human TRPV1; no effect in control T-REx HEK293 cells; blocked by AMG9810. It is filed as cell-based.
TRPV1, sequence (Q8NER1 whole entry): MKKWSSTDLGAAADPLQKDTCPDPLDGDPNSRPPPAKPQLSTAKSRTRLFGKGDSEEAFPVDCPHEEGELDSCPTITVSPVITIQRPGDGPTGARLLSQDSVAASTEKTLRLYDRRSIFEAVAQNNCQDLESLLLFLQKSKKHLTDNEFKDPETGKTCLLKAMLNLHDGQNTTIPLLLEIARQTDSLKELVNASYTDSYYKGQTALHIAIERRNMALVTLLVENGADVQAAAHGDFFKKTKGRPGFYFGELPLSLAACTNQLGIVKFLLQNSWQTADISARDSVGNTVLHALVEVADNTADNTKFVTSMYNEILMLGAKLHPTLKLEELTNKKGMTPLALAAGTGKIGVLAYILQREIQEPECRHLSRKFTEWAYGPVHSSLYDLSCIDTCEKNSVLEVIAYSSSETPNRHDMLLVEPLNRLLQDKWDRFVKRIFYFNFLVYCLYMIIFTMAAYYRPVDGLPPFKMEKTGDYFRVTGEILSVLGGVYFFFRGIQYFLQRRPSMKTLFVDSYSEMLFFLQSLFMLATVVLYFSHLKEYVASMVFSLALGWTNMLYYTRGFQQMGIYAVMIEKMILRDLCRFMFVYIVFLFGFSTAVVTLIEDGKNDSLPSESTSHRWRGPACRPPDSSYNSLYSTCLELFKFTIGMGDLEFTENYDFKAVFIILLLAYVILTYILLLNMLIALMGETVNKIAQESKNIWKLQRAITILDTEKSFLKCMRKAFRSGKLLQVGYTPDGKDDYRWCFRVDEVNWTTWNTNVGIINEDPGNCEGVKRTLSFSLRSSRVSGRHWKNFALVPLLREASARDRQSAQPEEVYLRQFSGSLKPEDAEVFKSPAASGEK

For the molecule `O=C(/C=C/C=C/c1ccc2c(c1)OCO2)N1CCCCC1` [Piperine], the half-maximal effective concentration (EC50) worked out at 1080 nM.
